This passage reports τ½ON and τ½OFF results from patent US12459985B2, “G-protein-coupled receptor internal sensors” (THE REGENTS OF THE UNIVERSITY OF CALIFORNIA, priority 2016, dated 2025).

The target in the experiment is Beta2AR with a cpGFP integrated into the third intracellular loop (Homo sapiens, UniProt P07550). Particulars: saturating conditions (1 μM drug).

Structures are written as SMILES.

`CNC[C@H](O)c1ccc(O)c(O)c1` [epinephrine]: under “time constant of association”, the τ½ON worked out at 17.1 s. The τ½OFF (time constant of dissociation) is 235.34 s.
